From article PMC4772543, “Immune responses to Mycobacterial heat shock protein 70 accompany self-reactivity to human BiP in rheumatoid arthritis” (Scientific Reports, 2016)

Assays:
HLA-DR4 transgenic mice = assay: Immunization of HLA-DR4 transgenic mice with MycHSP70, serum antibody titers by ELISA; assay type: in vivo, mouse; details: 100 μg MycHSP70 with complete Freund's adjuvant subcutaneously
Experimental: (§1) Figure 5 Immunization of HLA-DR4 transgenic mice with MycHSP70. (A) HLA-DR4 transgenic mice were immunized with recombinant MycHSP70. Serum anti-MycHSP70 and anti-mouse BiP antibody titers were measured in the 21 days following the first immunization. (B) Splenic CD4+ T cell proliferation from MycHSP70-immunized HLA-DR4 transgenic mice in response to MycHSP70_287–306 and BiP336–355 epitopes. Proliferation was determined by the incorporation of [3]-H thymidine. Data were representative of at least three independent trials. ***p < 0.001.
Serum antibodies were measured by ELISA as previously reported. Briefly, 96-well plates (Thermo Fisher Scientific) were coated with 5 μg/mL of each antigen and dissolved in 0.1 M NaHCO3. […]
(§2) HLA-DR4 transgenic mice were obtained from Taconic, immunized twice (day 0, 14) with 100 μg of MycHSP70 with the same volume of complete Freund’s adjuvant subcutaneously into the tails, and sacrificed on day 21. MACS-purified CD4^+ T cells (1 × 10^5/mL) were cultured with irradiated splenocytes (1 × 10^6/mL) and an antigen (10 μg/mL) in RPMI 1640 medium supplemented with 5% FCS, 2 mM L-glutamine, 100 U/ml penicillin, 100 μg/ml streptomycin, and 5 × 10^−5 M 2-mercaptoethanol in a humidified incubator at 37 °C, 5% CO2, for 72 h. ^3H-thymidine was pulsed to each well, cells were harvested after an 18-hour incubation, and analyzed with a scintillation counter.

T cells in RA = details: cited from earlier work
Excerpt: MycHSP70 and BiP share 50% of their amino acid sequences, and MycHSP70_287–306 is located at a position corresponding to that of the BiP-derived HLA-DR4 effector epitope. We previously identified two major BiP-derived HLA-DR4 epitopes in RA. […] MycHSP70_287–306 strongly induces proliferation and is regarded as an effector epitope. MycHSP70_287–306 and BiP336–355 share 50% of the amino acids in their core sequences, which bind HLA-DR pockets. They also share the P4V residue, whi ...

[1] = tested on: CD4+ T cells from MycHSP70-immunized HLA-DR4 transgenic mice; assay: Splenic CD4+ T cell proliferation from MycHSP70-immunized HLA-DR4 transgenic mice in response to epitopes; assay type: cell-based, mouse; details: antigen 10 μg/mL, 72 h, irradiated splenocytes, 3H-thymidine
Experimental: as §1, §2

| Substance | serum antibody titers to MycHSP70 (HLA-DR4 transgenic mice; day 0 and 14, serum day 21) | serum antibody titers to BiP (HLA-DR4 transgenic mice; day 0 and 14, serum day 21, anti-mouse BiP) | T cell type recognizing the BiP-derived HLA-DR4 epitope (T cells in RA) | CD4+ T cell proliferation in response to peptide [1] |
| --- | --- | --- | --- | --- |
| MycHSP70: recombinant Mycobacterial heat shock protein 70 (NCBI GenBank AF2122/97) | elevation | elevation | – | – |
| RSTMKPVQKVLEDSDLKKSD [BiP336–355, reference compound] | – | – | recognized by effector T cells | significant proliferation |
